# According to patent publication US10933051B2, “Carbapenem compounds and compositions for the treatment of bacterial infections” (FOB Synthesis, Inc., priority 2017, dated 2021):
# Experiments:
# Assay in all cases: Antimicrobial Susceptibility Test (CLSI), Test Example 2
# Assay type in all cases: cell-based
# Design in all cases: unit not given here
# A. baumannii FSAb-029 = conditions: Table 4; strain produces OXA-2, IMP-1
# Experimental: (§1) Antimicrobial Susceptibility Test was performed by the CLSI (Clinical and Laboratory Standards Institute) methods. The agar dilution method for determining antimicrobial susceptibility was carried out using Mueller Hinton-II agar and the amount of inoculation was 10^4CFU/spot. Broth dilution tests were performed using the Mueller Hinton-II broth. All assays were run with the indicated control strains, available from the ATCC (American Type Culture Collection, Rockville, Md.).
# A. baumannii FSAb-039 = conditions: Table 4; strain produces OXA-51
# Experimental: as §1
# A. baumannii FSAb-056 = conditions: Table 4; strain produces OXA-23, OXA-51
# Experimental: as §1
# A. baumannii FSAb-065 = conditions: Table 4; strain produces OXA-2, VIM-2
# Experimental: as §1
# E. coli FSEco-054 = conditions: Table 4; strain produces ESBL
# Experimental: as §1
# [1] = tested on: K. pneumoniae ATCC BAA-1904; conditions: Table 4; strain produces KPC-3
# Experimental: as §1
# P. aeruginosa FSPa-121 = conditions: Table 4; strain produces OXA-17
# Experimental: as §1
Compound,"antimicrobial susceptibility, A. baumannii FSAb-029 (A. baumannii FSAb-029)","antimicrobial susceptibility, A. baumannii FSAb-039 (A. baumannii FSAb-039)","antimicrobial susceptibility, A. baumannii FSAb-056 (A. baumannii FSAb-056)","antimicrobial susceptibility, A. baumannii FSAb-065 (A. baumannii FSAb-065)","antimicrobial susceptibility, E. coil FSEco-054 (E. coli FSEco-054)","antimicrobial susceptibility, K. pneumoniae BAA-1904 [1]","antimicrobial susceptibility, P. aeruginosa FSPa-121 (P. aeruginosa FSPa-121)"
C[C@@H](O)[C@H]1C(=O)N2C(C(=O)O)=C(CN(C)CCNC(=O)c3ccc(O)c(O)c3F)[C@H](C)[C@H]12 [Compound 2],2,4,2,2,2,16,2
C[C@@H](O)[C@H]1C(=O)N2C(C(=O)O)=C(CN(C)CCNC(=O)c3ccc(O)c(O)c3C(F)(F)F)[C@H](C)[C@H]12 [Compound 3],4,4,4,2,4,32,4
Cc1c(C(=O)NCCN(C)CC2=C(C(=O)O)N3C(=O)[C@H]([C@@H](C)O)[C@H]3[C@H]2C)ccc(O)c1O [Compound 4],8,8,8,4,8,16,8
C[C@@H](O)[C@H]1C(=O)N2C(C(=O)O)=C(CN(C)CCNC(=O)c3cc(O)c(O)c(F)c3)[C@H](C)[C@H]12 [Compound 7],2,4,2,2,2,16,2
C[C@@H](O)[C@H]1C(=O)N2C(C(=O)O)=C(CN(C)CCNC(=O)c3ccc(O)cc3)[C@H](C)[C@H]12 [Compound 10],16,>32,16,16,>32,8,>32
C[C@@H](O)[C@H]1C(=O)N2C(C(=O)O)=C(CN(C)CCNC(=O)c3cccc(O)c3Cl)[C@H](C)[C@H]12 [Compound 11],32,>32,32,32,>32,8,>32
C[C@@H](O)[C@H]1C(=O)N2C(C(=O)O)=C(CN(C)CCNC(=O)c3cccc(O)c3F)[C@H](C)[C@H]12 [Compound 12],32,>32,32,32,>32,4,>32
C[C@@H](O)[C@H]1C(=O)N2C(C(=O)O)=C(CN(C)CCNC(=O)c3ccccc3Cl)[C@H](C)[C@H]12 [Compound 13],32,>32,32,16,>32,8,>32
C[C@@H](O)[C@H]1C(=O)N2C(C(=O)O)=C(CN(C)CCNC(=O)c3ccc(Cl)cc3)[C@H](C)[C@H]12 [Compound 14],>32,>32,>32,>32,>32,16,>32
C[C@@H](O)[C@H]1C(=O)N2C(C(=O)O)=C(CN(C)CCNC(=O)c3ccc(OC(=O)C(C)(C)C)c(OC(=O)C(C)(C)C)c3Cl)[C@H](C)[C@H]12 [Compound 16],4,8,8,8,8,>32,8
C[C@@H](O)[C@H]1C(=O)N2C(C(=O)O)=C(CN(C)CCCNC(=O)c3ccc(O)c(O)c3Cl)[C@H](C)[C@H]12 [Compound 17],2,8,4,2,2,32,4
C[C@@H](O)[C@H]1C(=O)N2C(C(=O)O)=C(CN(C)CC(NC(=O)c3ccc(O)c(O)c3Cl)C(N)=O)[C@H](C)[C@H]12 (some centres unmarked) [Compound 18],8,4,4,1,2,16,2
C[C@@H](O)[C@H]1C(=O)N2C(C(=O)O)=C(CN(C)CC(=O)NCc3ccc(O)c(O)c3Cl)[C@H](C)[C@H]12 [Compound 21],8,8,8,2,4,8,2
C[C@@H](O)[C@H]1C(=O)N2C(C(=O)O)=C(CN3CC[C@H](NC(=O)c4ccc(OCc5ccccc5)c(OCc5ccccc5)c4Cl)C3)[C@H](C)[C@H]12 [Compound 28],0.5,8,4,0.5,2,>32,2
C[C@@H](O)[C@H]1C(=O)N2C(C(=O)O)=C(CN3CC[C@@H](NC(=O)c4ccc(O)c(O)c4Cl)C3)[C@H](C)[C@H]12 [Compound 29],1,8,4,1,2,>32,2
C[C@@H](O)[C@H]1C(=O)N2C(C(=O)O)=C(CN3C[C@H](NC(=O)c4ccc(O)c(O)c4Cl)[C@@H](O)C3)[C@H](C)[C@H]12 [Compound 30],2,4,4,0.5,2,16,2
C[C@@H](O)[C@H]1C(=O)N2C(C(=O)O)=C(CN3C[C@@H](O)[C@H](NC(=O)c4ccc(O)c(O)c4Cl)C3)[C@H](C)[C@H]12 [Compound 31],2,4,4,0.5,2,32,2
C[C@@H](O)[C@H]1C(=O)N2C(C(=O)O)=C(CN3CC(NC(=O)c4ccc(O)c(O)c4F)[C@@H](O)C3)[C@H](C)[C@H]12 (some centres unmarked) [Compound 36],4,4,8,,4,32,
C[C@@H](O)[C@H]1C(=O)N2C(C(=O)[O-])=C(C[N+](C)(C)CCNC(=O)c3ccc(O)c(O)c3F)[C@H](C)[C@H]12 [Compound 41],8,16,32,,4,8,
C[C@@H](O)[C@H]1C(=O)N2C(C(=O)[O-])=C(C[N+]3(CCNC(=O)c4ccc(O)c(O)c4F)CCCC3)[C@H](C)[C@H]12 [Compound 42],4,8,16,,2,16,
